Experimental data reported in US4870187A, “Antihypercholesterolemic tetrazol-1-yl compounds” (Bristol-Myers Company, priority 1988, dated 1989).
Where a name gives a salt, the structure may show the parent alone.

Tests used:
[1] = system: Isolated Hepatocyte Cholesterol Biosynthesis; experiment: Test B: Isolated Hepatocyte Cholesterol Biosynthesis Assay; type: cell-based, male Wistar rats; conditions: rat hepatocytes, 10 min preincubation, 60 min incubation at 37°, pH 7.35, read-out: IC50, Inhibition of Isolated Hepatocyte Cholesterol Biosynthesis
Procedure: Intact parenchymal hepatocytes were isolated from male Wistar rats (180-280 g) fed cholestyramine containing or normal diet, using the collagenase perfusion method essentially as described by Seglen, in Methods in Cell Biology (D. Prescott, ed.) Vol. 13, pp. 29-83, Academic Press, New York (1976). Cell preparations were used only when viability (trypan blue exclusion) exceeded 90%. Cholesterol biosynthesis was determined as the incorporation by hepatocytes of ^3 H from [^3 H]-water into total (cellular plus medium) 3β-hydroxy sterols as per Ingebritsen, et al., J. Biol. Chem., 254, 9986-9989 (1979). Hepatocyte sterols and lipids were isolated by a modification of the methods described by Kates, in Techniques in Lipidology, (M. Kates, ed.), pp. 349, 360-363, North Holland Publ. Co., Amsterdam, 1972. To isolate sterols, cells are extracted with methanol:chloroform:water (2:1:0.8), the chloroform phase is separated and extracted with benzene to remove traces of water, then dried under nitrogen. The residue is saponified at 75° C. with 0.30N NaOH in methanol:water (9:1). The alkaline mixture is then extracted three times with petroleum ether to yield the non-saponifiable lipids which include the free as well as initially esterified cholesterol. The extract is dried under nitrogen in the presence of carrier cholesterol (0.1 mg) and 10% benzene, and the residue is dissolved in acetone:ethanol (1:1). Finally, the 3β-hydroxysterols are precipitated with an excess of digitonin, the precipitate is washed in acetone, dried under nitrogen, and dissolved in toluene:methanol (1:1). The ^3 H-labelled sterols are quantified by liquid scintillation and corrected for counting efficiency. In some tests ^14 C-cholesterol was added to initial extractions as an index of recovery, which averaged 80±3%. […]

[2] = target: T1, rat liver HMG-CoA reductase (Rattus norvegicus, UniProt P51639); experiment: Test A: In Vitro Inhibition of Microsomal HMG-CoA Reductase; type: biochemical; conditions: rat liver microsomes; 0.33 mM d,1-[3-14C]-HMG-CoA, 3.0 mM NADPH, pH 7.2
T1 construct: from tissue; host or cells: rat liver microsomes
T1 sequence (P51639 1-887): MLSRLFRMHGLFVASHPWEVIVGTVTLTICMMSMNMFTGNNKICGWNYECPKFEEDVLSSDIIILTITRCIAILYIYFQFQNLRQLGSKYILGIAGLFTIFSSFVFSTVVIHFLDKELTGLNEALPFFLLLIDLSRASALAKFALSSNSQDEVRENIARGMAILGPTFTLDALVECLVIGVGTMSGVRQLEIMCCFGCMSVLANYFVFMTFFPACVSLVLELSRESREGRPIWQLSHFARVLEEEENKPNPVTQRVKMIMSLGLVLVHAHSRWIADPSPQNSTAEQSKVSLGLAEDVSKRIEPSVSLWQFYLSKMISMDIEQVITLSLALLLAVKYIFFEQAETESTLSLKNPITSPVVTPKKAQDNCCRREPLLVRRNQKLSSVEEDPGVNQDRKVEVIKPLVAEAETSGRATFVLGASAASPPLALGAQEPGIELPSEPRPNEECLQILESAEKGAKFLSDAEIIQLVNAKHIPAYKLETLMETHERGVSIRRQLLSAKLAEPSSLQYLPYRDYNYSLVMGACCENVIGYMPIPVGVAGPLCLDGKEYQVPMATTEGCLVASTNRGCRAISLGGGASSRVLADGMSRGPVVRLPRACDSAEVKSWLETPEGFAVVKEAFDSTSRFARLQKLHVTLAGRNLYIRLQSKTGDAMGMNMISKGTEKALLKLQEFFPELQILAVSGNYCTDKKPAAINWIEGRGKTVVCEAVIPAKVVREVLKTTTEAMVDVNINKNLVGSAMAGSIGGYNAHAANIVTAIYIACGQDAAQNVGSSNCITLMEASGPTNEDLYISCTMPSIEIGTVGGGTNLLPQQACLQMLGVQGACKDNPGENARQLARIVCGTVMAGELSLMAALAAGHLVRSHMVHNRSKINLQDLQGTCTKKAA
Procedure: The intact, fully activated microsomal form of rat liver HMG-CoA reductase (subunit MW ca 100,000 daltons) was prepared as described by Parker, et al., Biochem. Biophys. Res. Commun., 125, 629-635 (1984), and used as the source of enzyme for assays. HMG-CoA reductase activity was determined essentially by the method of Shapiro, et al., Biochem. Biophys. Acta., 370, 369-377 (1974), with modifications as described by Ingebritsen and Gibson, Meth. Enzymol. 71, 486-497 (1981) with the exception that the internal standard ^3 H-mevalonolactone is added after termination of the assay. […]
To measure reductase inhibition, test compounds dissolved in water or dimethylsulfoxide and diluted in buffer A (50 mM imidazole-HCl, 250 mM NaCl, 1 mM EDTA, 1 mM EGTA, 5 mM DTT, 20 μM leupeptin, pH=7.2) were incubated with aliquots of microsomes (80-160 μg protein in buffer A) followed by addition of d,1-[3-^14 C]-HMG-CoA (0.33 mM, 2.0 dpm/picomole) and NADPH (3.0 mM). The 50 percent inhibitory concentration (IC50) for each compound in Table 1 was calculated from the linear regression line of the percent decrease (from control) in enzyme activity vs. log concentration of inhibitor, determined using at least 4 dilutions of each test compound assayed in duplicate.

Row | IC50 [2] [nM] | Compound | IC50 [1] [nM]
1 | 750 | Cc1nnnn1C(/C=C/C(O)CC(O)CC(=O)O)=C(c1ccc(F)cc1)c1ccc(F)cc1 (centres unmarked) [Example 20] | 100
2 | 120 | O=C(O)CC(O)CC(O)/C=C/C(=C(c1ccc(F)cc1)c1ccc(F)cc1)n1cnnn1 (centres unmarked) [Example 28, 9,9-Bis(4-fluorophenyl)-3,5-dihydroxy-8-(1H-tetrazol-1-yl)-6,8-nonadienoic acid, sodium salt] | 20
3 | – | CC[C@H](C)C(=O)O[C@H]1C[C@@H](C)C=C2C=C[C@H](C)[C@H](CC[C@@H]3C[C@@H](O)CC(=O)O3)[C@H]21 [Mevinolin (Lovastatin), Mevinolin, reference compound] | 46 ± 26
